Reference: patent US20250255889A1, “METHODS FOR TREATMENT SELECTION FOR CHRONIC LYMPHOCYTIC LEUKEMIA (CLL)” (The Broad Institute, Inc., priority 2022, published 2025)

Legend:
[1] = tested on: healthy PBMCs (normal cell types CD14, CD19, CD3); assay: HT-DBP delta priming in healthy donor normal cells; format: cell-based, human; conditions: normal peripheral blood mononuclear cells
Procedure: FIG. 17 provides a heatmap showing median delta priming across healthy donors for the indicated normal cell types (CD14, CD19, and CD3).
The assay was robust, as indicated by an 0.92 median Pearson correlation across replicates (FIGS. 5A, 5B, 6A, and 6B). Additionally, the majority of drugs had greater effect on CLL samples than on healthy PBMCs (p<0.001, paired t-test), supporting their specificity (FIGS. 7A-7C).
Delta-priming was measured for the molecular features listed along the top of FIGS. 14, 17, and 32 using the HT-DBP screen. The molecular features included IGHV subtypes, epitypes, expression subtypes (i.e., expression clusters), mutations in driver genes, and recurrent copy-number events. A feature was included in the heatmap of FIG. 14 only if at least 2 patients in a DBP screen had the feature. Median delta-priming was computed across all BH3 peptides and across all patients within the feature. […] Plots showing molecular features for groups of 65 and 81 patients were also compiled (see FIGS. 19, 20).

[2] = tested on: primary CLL samples (CD19+ and CD5+ cells); assay: High-throughput dynamic BH3 profiling (HT-DBP): drug-induced apoptotic priming (delta priming), cytochrome c release after BH3 peptide; format: cell-based, human; conditions: for drug-induced apoptotic priming: across CLL subtypes, 65 primary CLL samples, 20 hours drug
How it was run: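 Primary CLL cells (CD19+/CD5+) are treated with the agent or DMSO carrier, then briefly exposed to a fixed concentration of a promiscuous BH3 peptide such as BIM. Mitochondrial cytochrome c release serves as the priming surrogate. Delta priming is drug-treated priming minus DMSO-treated priming, run in high-throughput format.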

[3] = peptide MS1 2.5 uM, feature loss_13q14.13
[4] = peptide PUMA 1 uM, feature EC-m2
[5] = peptide PUMA 1 uM, feature loss_6q21
[6] = peptide PUMA 1 uM, feature BIRC3
[7] = peptide PUMA 1 uM, feature i-CLL
[8] = peptide PUMA 1 uM, feature loss_9p21.3
[9] = peptide PUMA 1 uM, feature loss_17q11.2
[10] = peptide BIM 0.01 uM, feature EC-m2
[11] = peptide MS1 2.5 uM, feature BIRC3
[12] = peptide MS1 2.5 uM, feature ITIH2
[13] = peptide MS1 2.5 uM, feature loss_9p21.3
[14] = peptide MS1 2.5 uM, feature loss_17q11.2
[15] = peptide BIM 0.01 uM, feature NOTCH1

Compound: CC1(C)CCC(CN2CCN(c3ccc(C(=O)NS(=O)(=O)c4ccc(NCC5CCOCC5)c([N+](=O)[O-])c4)c(Oc4cnc5[nH]ccc5c4)c3)CC2)=C(c2ccc(Cl)cc2)C1 [Venetoclax, venetoclax]
- priming response in normal cell groups [1]: minimal priming response
- priming in CLL groups ([2]; CLL sample groups compared with normal PBMCs): potentially therapeutically relevant priming
- drug-induced apoptotic priming by expression cluster ([2]; EC-m2, within M-CLL ECs): least effective
- drug-induced apoptotic priming by expression cluster ([2]; EC-m3, within M-CLL ECs): most effective
- direction ([2]; Feature EC-m2): Resistant
- direction ([2]; Feature loss_13q14.3): Sensitive
- drug-induced apoptotic priming [2]: highly effective
- positive delta priming values (rank among drugs) ([2]; across all evaluated BH3 peptides, 42 drugs): top-ten drugs with the highest positive delta priming values
- delta priming value of combined treatment ([2]; combined with MS1 peptide (MCL1 inhibitor), relative to alternative treatments): increased delta priming value
- direction ([2]; peptide BAD 0.3 uM, feature EC-m3): Sensitive
- direction ([2]; peptide BAD 0.3 uM, feature loss_13q14.3): Sensitive
- direction ([2]; peptide BIM 0.01 uM, feature SAMHD1): Sensitive
- direction ([2]; peptide MS1 2.5 uM, feature POT1): Sensitive
- direction ([2]; peptide MS1 2.5 uM, feature gain_16p11.2): Sensitive
- direction [2, 3]: Sensitive
- direction [2, 4]: Resistant
- direction [2, 5]: Resistant

Compound: CCn1c(-c2nonc2N)nc2c(C#CC(C)(C)O)ncc(OC[C@H]3CCCNC3)c21 [GSK690693]
- direction ([2]; Feature i-CLL): Sensitive
- direction ([2]; peptide BAD 0.3 uM, feature EC-o): Sensitive
- direction ([2]; peptide BAD 0.3 uM, feature POT1): Resistant
- direction ([2]; peptide BAD 0.3 uM, feature loss_3p13): Resistant
- direction ([2]; peptide BIM 0.01 uM, feature i-CLL): Sensitive
- direction ([2]; peptide MS1 2.5 uM, feature EC-m3): Resistant
- direction ([2]; peptide MS1 2.5 uM, feature EC-o): Sensitive
- direction ([2]; peptide MS1 2.5 uM, feature i-CLL): Sensitive
- direction [2, 3]: Sensitive
- direction [2, 6]: Sensitive
- direction ([2]; peptide PUMA 1 uM, feature ITIH2): Sensitive
- direction [2, 7]: Sensitive
- direction [2, 8]: Sensitive
- direction [2, 9]: Sensitive

Compound: CC[C@H](Nc1ncnc2nc[nH]c12)c1nc2cccc(F)c2c(=O)n1-c1ccccc1 [Idelalisib, idelalisib]
- drug-induced apoptotic priming [2]: high priming
- direction ([2]; peptide MS1 2.5 uM, feature tri_12): Sensitive
- direction ([2]; peptide PUMA 1 uM, feature DICER1): Resistant
- direction ([2]; peptide PUMA 1 uM, feature EC-m4): Sensitive
- direction ([2]; peptide PUMA 1 uM, feature KMT2D): Sensitive
- direction ([2]; peptide PUMA 1 uM, feature MED1): Resistant

Compound: CNC(=O)c1cc(Oc2ccc(NC(=O)Nc3ccc(Cl)c(C(F)(F)F)c3)cc2)ccn1 [Sorafenib]
- direction ([2]; peptide BAD 0.3 uM, feature GNB1): Sensitive
- direction ([2]; peptide BAD 0.3 uM, feature RFX7): Sensitive
- direction ([2]; peptide BAD 0.3 uM, feature ZMYM3): Sensitive
- direction ([2]; peptide BAD 0.3 uM, feature i-CLL): Resistant
- direction ([2]; peptide BIM 0.01 uM, feature FBXW7): Resistant
- direction ([2]; peptide BIM 0.01 uM, feature GNB1): Sensitive
- direction ([2]; peptide BIM 0.01 uM, feature RFX7): Resistant
- direction ([2]; peptide BIM 0.01 uM, feature ZMYM3): Resistant
- direction ([2]; peptide BIM 0.01 uM, feature gain_19p13.3): Resistant
- direction ([2]; peptide BIM 0.01 uM, feature loss_2q31.1): Resistant
- direction ([2]; peptide BIM 0.01 uM, feature loss_10p12.2): Resistant
- direction ([2]; peptide MS1 2.5 uM, feature RFX7): Resistant
- direction ([2]; peptide MS1 2.5 uM, feature ZMYM3): Resistant
- direction ([2]; peptide MS1 2.5 uM, feature gain_19p13.3): Resistant
- direction ([2]; peptide MS1 2.5 uM, feature loss_2q31.1): Resistant
- direction ([2]; peptide MS1 2.5 uM, feature loss_10p12.2): Resistant
- direction ([2]; peptide MS1 2.5 uM, feature loss_10q24.2): Resistant
- direction ([2]; peptide MS1 2.5 uM, feature loss_11q22.3): Resistant
- direction ([2]; peptide MS1 2.5 uM, feature m-CLL): Sensitive
- direction ([2]; peptide MS1 2.5 uM, feature priortrt_Post): Resistant
- direction ([2]; peptide PUMA 1 uM, feature FBXW7): Resistant
- direction ([2]; peptide PUMA 1 uM, feature RFX7): Resistant
- direction ([2]; peptide PUMA 1 uM, feature ZMYM3): Resistant

Compound: O=C(CCCCCCC(=O)Nc1ccccc1)NO [Vorinostat]
- direction ([2]; Feature EC-m2): Sensitive
- direction ([2]; Feature EC-m4): Resistant
- direction [2, 10]: Sensitive
- direction ([2]; peptide BIM 0.01 uM, feature EC-m4): Resistant
- direction [2, 4]: Sensitive
- direction [2, 7]: Resistant
- direction [2, 5]: Sensitive

Compound: fludarabine
- response (apoptotic priming) ([2]; IGHV mutated CLLs, FDR<0.1, t-test): significant response
- direction [2, 11]: Sensitive
- dprim_pearson_corr [2, 11]: 0.4431
- direction [2, 12]: Sensitive
- dprim_pearson_corr [2, 12]: 0.5036
- direction [2, 13]: Sensitive
- dprim_pearson_corr [2, 13]: 0.4431
- direction [2, 14]: Sensitive
- dprim_pearson_corr [2, 14]: 0.4431

Compound: C=CC(=O)Nc1cc(Nc2nccc(-c3cn(C)c4ccccc34)n2)c(OC)cc1N(C)CCN(C)C [Osimertinib]
- direction ([2]; peptide BAD 0.3 uM, feature IGLV321_R110): Resistant
- direction ([2]; peptide BAD 0.3 uM, feature MYD88): Resistant
- direction ([2]; peptide BAD 0.3 uM, feature NOTCH1): Resistant
- direction ([2]; peptide BAD 0.3 uM, feature RPS15): Resistant
- direction ([2]; peptide BAD 0.3 uM, feature loss_6q): Resistant
- direction ([2]; peptide BIM 0.01 uM, feature BIRC3): Sensitive
- direction ([2]; peptide BIM 0.01 uM, feature EC-u2): Sensitive
- direction ([2]; peptide BIM 0.01 uM, feature IGLV321_R110): Resistant
- direction [2, 15]: Resistant
- direction ([2]; peptide BIM 0.01 uM, feature RPS15): Resistant
- direction ([2]; peptide BIM 0.01 uM, feature loss_6q): Resistant
- direction ([2]; peptide BIM 0.01 uM, feature loss_9p21.3): Sensitive
- direction ([2]; peptide BIM 0.01 uM, feature loss_17q11.2): Sensitive
- direction ([2]; peptide MS1 2.5 uM, feature EC-i): Resistant
- direction ([2]; peptide MS1 2.5 uM, feature IGLV321_R110): Resistant
- direction ([2]; peptide MS1 2.5 uM, feature NOTCH1): Resistant
- direction ([2]; peptide MS1 2.5 uM, feature RPS15): Resistant
- direction ([2]; peptide MS1 2.5 uM, feature loss_6q): Resistant
- direction [2, 6]: Sensitive
- direction ([2]; peptide PUMA 1 uM, feature MYD88): Resistant
- direction ([2]; peptide PUMA 1 uM, feature loss_3p21.31): Resistant
- direction [2, 8]: Sensitive
- direction [2, 9]: Sensitive

Compound: C[C@H](Nc1ncnc2[nH]cnc12)c1cc2cccc(Cl)c2c(=O)n1-c1ccccc1 [Duvelisib, duvelisib]
- drug-induced apoptotic priming [2]: high priming
- direction ([2]; peptide BAD 0.3 uM, feature loss_17p13.1): Sensitive
- direction ([2]; peptide BAD 0.3 uM, feature loss_17q23.1): Sensitive
- direction [2, 10]: Sensitive
- direction [2, 15]: Resistant
- direction ([2]; peptide MS1 2.5 uM, feature loss_17p13.1): Sensitive
- direction ([2]; peptide MS1 2.5 uM, feature loss_17q23.1): Sensitive
- direction [2, 4]: Sensitive
- direction ([2]; peptide PUMA 1 uM, feature loss_17p13.1): Sensitive
- direction ([2]; peptide PUMA 1 uM, feature loss_17q23.1): Sensitive
